Values after ≈ are worked out from the molar mass of the structure shown. Numbered stars: 1 amine (or outer) side, 2 acyl side, 3 side chain; on linkers, the order of the positions; unused ones are H or OH. Bridge positions count the residues as written; N and C are the ends. Square brackets hold non-standard residues; d marks the D form. Peptide text beside a SMILES is read from it. ξ: configuration not given here. ξhAlg = O=C(C(CCC=[*:3])N[*:1])[*:2]; AllylGly = C=CC[CH](N)C(=O)O

The share remaining is what is left of the initial amount, in per cent. Low values mean more turnover, high ones less turnover. For orientation: solubility means the concentration that dissolves in the medium under given conditions. Read a low solubility as a poorly soluble substance. Broadly, the solubility (kinetic) is the concentration staying in solution when a stock, usually in DMSO, is diluted into the medium.

The nature of data set [1]: Plasma stability test, human plasma. Conditions: human plasma, 37° C.
Experimental: (§2) The peptide derivative of the present disclosure was added at a concentration of 1 μM to two types of plasma (human, rat), placed in each tube, and then cultured at 37° C. for time of 0, 30, 60, 120, and 240 minutes. The tube containing plasma was taken out every time, added with an acetonitrile solution containing an internal standard material (chlorpropamide), vortexed for 5 minutes, and centrifuged for 5 minutes (14,000 rpm, 4° C.). Thereafter, the plasma stability of the peptide derivative was evaluated by injecting the supernatant into an LC-MS/MS system and analyzing the drug at each time period. At this time, Procaine and Enalapril were used as reference materials for accuracy during a general plasma stability test.
(§3) After the reaction, the amount of drug remaining in each tube was analyzed by LC-MS/MS using Shimadzu Nexera XR system and TSQ vantage (Thermo). The HPLC column was used with a Luna C18 column (2.0×50 mm, 3 μm particle size; Phenomenex, US), and the mobile phase was distilled water (A) containing 0.1% formic acid and acetonitrile (B) containing 0.1% formic acid. Data analysis was performed using Xcalibur (version 1.6.1). In the result analysis, the plasma stability of each peptide derivative was expressed as % remaining for each time period for the sample without culture.
A short description of data set [2]: Plasma stability test, rat plasma. To be noted: rat plasma, 1 μM, 37° C.
Experimental: as §2, §3
The nature of data set [3]: Metabolic stability test, rat liver microsomes. The format is in vitro ADME. Conditions: pH 7.4, rat liver microsomes 0.5 mg/ml, NADPH, 37° C., 30 m.
Experimental: (§4) Three types of liver microsomes (Human, Rat, Mouse, 0.5 mg/ml), a 0.1 M phosphate buffer solution (pH 7.4), and the peptide derivative of the present disclosure were added at a concentration of 1 μM and pre-cultured at 37° C. for 5 minutes, and then added with an NADPH Regeneration system solution and cultured at 37° C. for 30 minutes. Thereafter, to terminate the reaction, the mixture was added with an acetonitrile solution containing an internal standard material (chlorpropamide), centrifuged for 5 minutes (14,000 rpm, 4° C.), and then the supernatant was injected into the LC-MS/MS system to analyze a substrate drug, and thus metabolic stability was evaluated.
(§5) The amount of substrate remaining through the reaction was analyzed by LC-MS/MS using Agilent 1290 infinity series pump system (Agilent, USA) and Triple Quad 5500 LC-MS/MS system (Applied Biosystems, USA). The HPLC column was used with a Kinetex C18 column (2.1×100 mm, 1.7 μm particle size; Phenomenex, USA), and the mobile phase was distilled water (A) containing 0.1% formic acid and acetonitrile (B) containing 0.1% formic acid. TurboSpray Ionization was used as an ion source for MS/MS, and a triple quadruple type was used as a mass spectrometer. The produced metabolites were quantified using a multiple reaction monitoring (MRM) quantitative mode, and data analysis was performed using Analyst software (version 1.6.1).
A further data set is described as follows: physchem. Conditions: pH 7.4, aqueous buffer, kinetic from dmso stock.
In the next data set the target is CYP2D6 (Homo sapiens, UniProt P10635). To be noted: microsomes, 10 µM. As for the experimental part:
(§1) Metabolites of each CYP isoenzyme indicator drug produced through the reaction were analyzed by LC-MS/MS using the Shimadzu Nexera XR system and TSQ vantage (Thermo).

A further data set concerns the target CYP2C9 (Homo sapiens, UniProt P11712). To be noted: microsomes, 10 µM. As to the method:
as §1

The next data set concerns the target CYP2C19 (Homo sapiens, UniProt P33261). To be noted: microsomes, 10 µM. As to the method: as §1
The target in the next data set is T1, CYP1A2 (Homo sapiens, UniProt P05177).
T1 sequence (P05177 1-516): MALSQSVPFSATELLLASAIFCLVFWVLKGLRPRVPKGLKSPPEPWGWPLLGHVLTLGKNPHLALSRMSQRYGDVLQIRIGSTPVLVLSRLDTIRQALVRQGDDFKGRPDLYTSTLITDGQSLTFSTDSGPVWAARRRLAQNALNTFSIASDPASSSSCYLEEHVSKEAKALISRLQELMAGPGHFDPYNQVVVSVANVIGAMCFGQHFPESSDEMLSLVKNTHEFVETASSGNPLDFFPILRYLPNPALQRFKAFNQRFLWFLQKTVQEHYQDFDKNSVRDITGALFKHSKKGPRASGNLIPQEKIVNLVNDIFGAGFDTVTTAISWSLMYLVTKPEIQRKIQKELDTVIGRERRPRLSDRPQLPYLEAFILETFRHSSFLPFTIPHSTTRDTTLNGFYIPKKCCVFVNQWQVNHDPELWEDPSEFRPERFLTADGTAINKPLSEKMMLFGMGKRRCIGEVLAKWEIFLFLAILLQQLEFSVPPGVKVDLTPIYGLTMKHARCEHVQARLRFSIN
To be noted: microsomes, 10 µM. As to the method:
as §1

A further data set has as its target CYP3A4 (Homo sapiens, UniProt P08684). Conditions: microsomes, 10 µM. As to the method:
as §1

Data set [4] is described as follows: Metabolic stability test, mouse liver microsomes. In kind it is in vitro ADME. To be noted: pH 7.4, mouse liver microsomes 0.5 mg/ml, NADPH, 37° C., 30 m. (In general: Liver microsomes are a subcellular fraction often used to study metabolism.)
Experimental: as §4, §5
A short description of data set [5]: in vitro. Conditions: human, microsomes, pH 7.4.
Experimental: as §4
The HPLC column was used with a Kinetex C18 column (2.1×100 mm, 1.7 μm particle size; Phenomenex, USA), and the mobile phase was distilled water (A) containing 0.1% formic acid and acetonitrile (B) containing 0.1% formic acid. TurboSpray Ionization was used as an ion source for MS/MS, and a triple quadruple type was used as a mass spectrometer. The produced metabolites were quantified using a multiple reaction monitoring (MRM) quantitative mode, and data analysis was performed using Analyst software (version 1.6.1).
Data set [6] can be described thus: in vitro. Conditions: human, plasma.
Experimental: as §2, §3
Data set [7] in a line: in vitro. Conditions: rat, plasma.
Experimental: as §2, §3
For the next data set, the system named is AMPK phosphorylation. The data set can be described thus: AMPK phosphorylation activity in mouse adipocytes (Western blot). In kind it is cell-based. Conditions: 3T3-L1, 10 μM, 24 hours; APN5 = 1.0. As to the method: There were confirmed effects of the peptide derivatives of the present disclosure on the expression and receptor activity of adiponectin in mouse adipocytes as a main adiponectin production site. A mouse adipocyte cell line 3T3-L1 was treated with each of the peptide derivatives of the present disclosure at a concentration of 10 μM and cultured for 24 hours, and then cells were obtained. Thereafter, the proteins were extracted and the effect on AMPK phosphorylation, which was responsible for the main downstream signaling of adiponectin, was confirmed by Western blot.

CYP2C9, sequence (P11712 whole entry): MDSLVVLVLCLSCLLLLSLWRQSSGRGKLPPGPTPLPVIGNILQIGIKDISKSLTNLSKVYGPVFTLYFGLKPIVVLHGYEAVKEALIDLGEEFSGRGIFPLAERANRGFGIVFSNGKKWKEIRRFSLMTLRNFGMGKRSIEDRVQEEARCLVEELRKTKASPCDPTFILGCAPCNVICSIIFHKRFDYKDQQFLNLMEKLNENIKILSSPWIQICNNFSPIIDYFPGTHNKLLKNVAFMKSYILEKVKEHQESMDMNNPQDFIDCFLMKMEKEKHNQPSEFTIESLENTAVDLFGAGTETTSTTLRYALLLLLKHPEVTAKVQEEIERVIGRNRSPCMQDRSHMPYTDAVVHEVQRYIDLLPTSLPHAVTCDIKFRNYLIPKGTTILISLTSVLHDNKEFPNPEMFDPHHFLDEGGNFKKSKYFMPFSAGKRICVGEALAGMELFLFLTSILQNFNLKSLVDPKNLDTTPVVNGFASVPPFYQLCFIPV
CYP2C19, sequence (P33261 whole entry): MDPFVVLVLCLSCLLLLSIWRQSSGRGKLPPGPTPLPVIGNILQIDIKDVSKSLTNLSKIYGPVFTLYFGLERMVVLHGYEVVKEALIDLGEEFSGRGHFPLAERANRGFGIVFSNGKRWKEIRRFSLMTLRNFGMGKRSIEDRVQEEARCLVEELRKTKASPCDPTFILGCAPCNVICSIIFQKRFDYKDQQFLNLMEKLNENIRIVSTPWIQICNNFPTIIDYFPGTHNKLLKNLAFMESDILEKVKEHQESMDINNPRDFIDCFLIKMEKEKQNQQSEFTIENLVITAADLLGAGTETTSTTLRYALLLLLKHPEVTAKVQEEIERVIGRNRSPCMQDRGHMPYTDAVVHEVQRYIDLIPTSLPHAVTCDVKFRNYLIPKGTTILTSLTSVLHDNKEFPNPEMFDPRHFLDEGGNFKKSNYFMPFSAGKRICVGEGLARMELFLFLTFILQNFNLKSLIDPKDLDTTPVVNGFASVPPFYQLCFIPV
CYP2D6, sequence (P10635 whole entry): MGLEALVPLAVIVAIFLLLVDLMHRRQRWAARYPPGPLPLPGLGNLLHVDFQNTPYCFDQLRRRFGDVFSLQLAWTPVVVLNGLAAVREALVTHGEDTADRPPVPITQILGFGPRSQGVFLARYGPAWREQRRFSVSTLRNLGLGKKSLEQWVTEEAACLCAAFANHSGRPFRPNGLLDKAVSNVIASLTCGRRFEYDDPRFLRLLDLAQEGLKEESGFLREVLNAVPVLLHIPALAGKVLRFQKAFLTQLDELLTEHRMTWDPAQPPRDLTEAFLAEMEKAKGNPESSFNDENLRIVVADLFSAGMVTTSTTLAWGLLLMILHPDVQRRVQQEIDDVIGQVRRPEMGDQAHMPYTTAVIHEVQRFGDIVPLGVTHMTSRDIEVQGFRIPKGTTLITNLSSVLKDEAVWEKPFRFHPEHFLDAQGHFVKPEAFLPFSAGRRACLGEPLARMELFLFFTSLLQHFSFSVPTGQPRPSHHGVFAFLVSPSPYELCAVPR
CYP3A4, sequence (P08684 whole entry): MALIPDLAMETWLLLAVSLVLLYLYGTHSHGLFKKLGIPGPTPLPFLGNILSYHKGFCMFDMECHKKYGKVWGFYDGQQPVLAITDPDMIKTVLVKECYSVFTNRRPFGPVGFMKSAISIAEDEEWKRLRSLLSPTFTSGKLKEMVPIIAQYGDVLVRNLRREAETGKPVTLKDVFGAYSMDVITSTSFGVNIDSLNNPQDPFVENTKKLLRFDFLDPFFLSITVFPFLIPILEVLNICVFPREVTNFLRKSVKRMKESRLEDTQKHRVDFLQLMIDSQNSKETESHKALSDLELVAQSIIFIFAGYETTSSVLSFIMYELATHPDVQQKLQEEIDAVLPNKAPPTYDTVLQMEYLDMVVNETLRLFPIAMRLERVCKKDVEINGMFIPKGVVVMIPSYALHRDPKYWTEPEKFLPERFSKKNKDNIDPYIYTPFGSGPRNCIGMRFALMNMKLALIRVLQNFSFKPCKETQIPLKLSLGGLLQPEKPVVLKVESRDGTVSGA
Experimental for physchem: A PRISMA HT solution was diluted in distilled water at a ratio of 1:40, and then used as a test buffer by adjusting the pH to 7.4.
10 mL of the prepared test material was diluted in 190 μL of isopropyl alcohol and prepared. In addition, 75 mL of the test solution and 70 mL of isopropyl alcohol were mixed to be used as a blank sample, and 5 mL of the test material diluted in isopropyl alcohol was added to the blank sample. After the diluted sample was mixed, the absorbance was measured and used as an initial test value. […] Thereafter, the precipitate was removed from the sample using a filter plate, 74 mL of the filtered sample was added with 75 mL of isopropyl alcohol, and then the absorbance was measured and used as the sample value.
The solubility value of the test material was analyzed using a msol Explore (Solubility explorer program) after measuring the absorbance of each sample through a microplate reader. The average and standard deviation of the experimental values (n=3) repeated three times were calculated using the Excel program.

On to `CCN(CC)CCOC(=O)c1ccc(N)cc1` [Procaine], for which, in data set [1] (cell marked (5 min)), the “Plasma stability (% remaining) Human, 30 m column, marked (5 min)” value is reported as 2.8 % remaining and the “Plasma stability (% remaining) Human, 120 m column, marked (5 min)” value is listed as under 1 % remaining. Moreover, in [2], the “Plasma stability (% remaining) Rat, 30 m” value stood at 90.3 % remaining and the “Plasma stability (% remaining) Rat, 120 m” value worked out at 57.4 % remaining.

`CC(C)CC1NC(=O)C(N)CC/C=C\CC(C(N)=O)NC(=O)C(Cc2ccc(O)cc2)NC(=O)C(Cc2ccc(O)cc2)NC1=O` (stereo not drawn) [DS-73] (H-[ξhAlg]LYY[AllylGly]-NH2; staple (Z) 1-5; configuration not given here): the fraction remaining at 0.5 h, 1 μM was 65.7% in data set [3]; 78% in data set [4]; 71.6% in “in vitro [5]”; 94.7% in the data set “in vitro [6]”; over 100% in “in vitro [7]”. In “physchem”, this compound had a solubility at 24 h of 315 µg/mL (≈ 495 µM). Besides, the “CYP inhibition (% of control activity) CYP2D6” value at CYP2D6 is 85.9 % of control activity. Moreover, on CYP2C9, the “CYP inhibition (% of control activity) CYP2C9” value is given as 96.5 % of control activity. Further, the “CYP inhibition (% of control activity) CYP2C19” value at CYP2C19 was 85.1 % of control activity. The “CYP inhibition (% of control activity) CYP1A2” value on CYP1A2 is given as 82.7 % of control activity. For the same compound, the “CYP inhibition (% of control activity) CYP3A4” value on CYP3A4 is recorded as 80.5 % of control activity. The fraction remaining at 2 h, 1 μM turned out to be 75.2% in “in vitro [6]” and 89.3% in “in vitro [7]”.

As to Ac-GDYYF-NH2 [DS-8, AcNH-GDYYF-NH2], the share remaining at 0.5 h, 1 μM is 78.2% in data set [3]; 83.6% in data set [4]; 93.9% in the data set “in vitro [5]”; 39.8% in the data set “in vitro [6]”; over 100% in the data set “in vitro [7]”. Also, at CYP2D6, the “CYP inhibition (% of control activity) CYP2D6” value is >100 % of control activity. The “CYP inhibition (% of control activity) CYP2C9” value on CYP2C9 was >100 % of control activity. Moreover, the “CYP inhibition (% of control activity) CYP2C19” value on CYP2C19 is on record as 100 % of control activity. Moreover, the “CYP inhibition (% of control activity) CYP1A2” value at CYP1A2 is listed as 95.1 % of control activity. The “CYP inhibition (% of control activity) CYP3A4” value at CYP3A4 was >100 % of control activity. The results for the share remaining at 2 h, 1 μM in the data set “in vitro [6]” and in “in vitro [7]” were 3.3% and 96%, respectively.

Regarding H-GDYYF-OH [DS-5, NH2-GDYYF-OH], the share remaining at 0.5 h, 1 μM in data set [3] was 66.4%; in data set [4], 95.9%; in the data set “in vitro [5]”, 62.5%; in “in vitro [6]” it was 1.4%; in the data set “in vitro [7]” it was over 100%. This compound gave a kinetic solubility at 24 h in the data set “physchem” of 328 µg/mL. Further, the “CYP inhibition (% of control activity) CYP2D6” value at CYP2D6 is given as 85.5 % of control activity. For the same compound, the “CYP inhibition (% of control activity) CYP2C9” value at CYP2C9 is 97.3 % of control activity. Besides, the “CYP inhibition (% of control activity) CYP2C19” value on CYP2C19 is reported as 80.9 % of control activity. Also, at CYP1A2, the “CYP inhibition (% of control activity) CYP1A2” value was 83.2 % of control activity. Also, at CYP3A4, the “CYP inhibition (% of control activity) CYP3A4” value is 90.9 % of control activity. The fraction remaining at 2 h, 1 μM is under 1% in “in vitro [6]” and 94.1% in “in vitro [7]”.

Consider `CC(=O)N1CCN(c2ccc(OCC3COC(Cn4ccnc4)(c4ccc(Cl)cc4Cl)O3)cc2)CC1` (stereo not drawn) [Ketoconazole, reference compound], for which the “CYP inhibition (% of control activity) CYP2C9” value at CYP2C9 is given as >100 % of control activity. Moreover, on CYP2C19, the “CYP inhibition (% of control activity) CYP2C19” value is recorded as >100 % of control activity. At CYP1A2, the “CYP inhibition (% of control activity) CYP1A2” value is recorded as 97.2 % of control activity.

On to `NCCCCC(NC(=O)C(Cc1ccc(O)cc1)NC(=O)C(Cc1ccc(O)cc1)NC(=O)C(CC(=O)O)NC(=O)CN)C(N)=O` (stereo not drawn) [DS-35, NH2-GDYYK-NH2] (H-GDYYK-NH2; configuration not given here), for which the fraction remaining at 0.5 h, 1 μM in [3] was 95.8%; in data set [4], 99.2%; in “in vitro [5]”, over 100%; in “in vitro [6]”, 2.9%; in the data set “in vitro [7]”, 99.4%. In addition, on CYP2D6, the “CYP inhibition (% of control activity) CYP2D6” value was 97.4 % of control activity. For the same compound, the “CYP inhibition (% of control activity) CYP2C9” value on CYP2C9 is 93.6 % of control activity. For the same compound, on CYP2C19, the “CYP inhibition (% of control activity) CYP2C19” value was 4.1 % of control activity. Moreover, at CYP1A2, the “CYP inhibition (% of control activity) CYP1A2” value is on record as 77.7 % of control activity. The “CYP inhibition (% of control activity) CYP3A4” value on CYP3A4 is reported as >100 % of control activity. Besides, the fraction remaining at 2 h, 1 μM in “in vitro [6]” was under 1%; in the data set “in vitro [7]”, 89.4%.

With `NCC(=O)NC(CC(N)=O)C(=O)NC(Cc1ccc(O)cc1)C(=O)NC(Cc1ccc(O)cc1)C(=O)NC(Cc1ccccc1)C(=O)O` (stereo not drawn) [DS-9, NH2-GNYYF-OH] (H-GNYYF-OH; configuration not given here), in the data set on AMPK phosphorylation, the “AMPK phosphorylation activity (fold change)” value is reported as 1.6 fold change.

In the data set “physchem”, `NC(=O)C(Cc1ccccc1)NC(=O)C(Cc1ccc(O)cc1)NC(=O)C(Cc1ccc(O)cc1)NC(=O)C(N)CC(=O)O` (stereo not drawn) [DS-29, NH2-DYYF-NH2] (H-DYYF-NH2; configuration not given here) registered a solubility at 24 h of 300 µg/mL (≈ 495 µM). Moreover, the “AMPK phosphorylation activity (fold change)” value in the data set on AMPK phosphorylation worked out at 1.2 fold change.

For the compound `CC(C)CC(NC(=O)CN)C(=O)N(C)C(Cc1ccc(O)cc1)C(=O)NC(Cc1ccc(O)cc1)C(=O)NC(Cc1ccccc1)C(N)=O` (stereo not drawn) [DS-56, NH2-GLY(N-Me)YF-NH2], the fraction remaining at 0.5 h, 1 μM was 41.1% in [3]; 10.6% in [4]; 53.9% in the data set “in vitro [5]”; 2.8% in the data set “in vitro [6]”; 70.9% in the data set “in vitro [7]”. Also, on CYP2D6, the “CYP inhibition (% of control activity) CYP2D6” value is given as 91.6 % of control activity. Also, at CYP2C9, the “CYP inhibition (% of control activity) CYP2C9” value is recorded as 100.0 % of control activity. The “CYP inhibition (% of control activity) CYP2C19” value at CYP2C19 was 73.5 % of control activity. Further, on CYP1A2, the “CYP inhibition (% of control activity) CYP1A2” value was 80.5 % of control activity. Moreover, at CYP3A4, the “CYP inhibition (% of control activity) CYP3A4” value is reported as 9.2 % of control activity. For the same compound, the share remaining at 2 h, 1 μM in the data set “in vitro [6]” was under 1%; in the data set “in vitro [7]” it was 29.4%.

In “physchem”, `NC(CC(=O)O)C(=O)NC(Cc1ccc(O)cc1)C(=O)NC(Cc1ccc(O)cc1)C(=O)NC(Cc1ccccc1)C(=O)O` (stereo not drawn) [DS-27, NH2-DYYF-OH] (H-DYYF-OH; configuration not given here) gave a solubility at 24 h of 300 µg/mL (≈ 495 µM). Moreover, the “AMPK phosphorylation activity (fold change)” value in the data set with AMPK phosphorylation worked out at 1.3 fold change.

For `CCOC(=O)[C@H](CCc1ccccc1)N[C@@H](C)C(=O)N1CCC[C@H]1C(=O)O` [Enalapril], the “Plasma stability (% remaining) Human, 30 m” value in data set [1] (1 μM, 30 m) is recorded as over 100 % remaining. In addition, the “Plasma stability (% remaining) Human, 120 m” value in data set [1] (1 μM, 120 m) is 197.4 % remaining. Moreover, in data set [2], the “Plasma stability (% remaining) Rat, 30 m” value is on record as 27.9 % remaining and the “Plasma stability (% remaining) Rat, 120 m” value is listed as under 1 % remaining.

The values above are taken from patent publication US20250049891A1, “NOVEL PEPTIDE DERIVATIVE DERIVED FROM ADIPONECTIN AND USE THEREOF” (SEOUL NATIONAL UNIVERSITY HOSPITAL, priority 2021, published 2025).
